Biological target: T1, E-selectin (Homo sapiens, UniProt P16581)
T1 construct: expressed in transfected cells
T1 sequence (P16581 22-610): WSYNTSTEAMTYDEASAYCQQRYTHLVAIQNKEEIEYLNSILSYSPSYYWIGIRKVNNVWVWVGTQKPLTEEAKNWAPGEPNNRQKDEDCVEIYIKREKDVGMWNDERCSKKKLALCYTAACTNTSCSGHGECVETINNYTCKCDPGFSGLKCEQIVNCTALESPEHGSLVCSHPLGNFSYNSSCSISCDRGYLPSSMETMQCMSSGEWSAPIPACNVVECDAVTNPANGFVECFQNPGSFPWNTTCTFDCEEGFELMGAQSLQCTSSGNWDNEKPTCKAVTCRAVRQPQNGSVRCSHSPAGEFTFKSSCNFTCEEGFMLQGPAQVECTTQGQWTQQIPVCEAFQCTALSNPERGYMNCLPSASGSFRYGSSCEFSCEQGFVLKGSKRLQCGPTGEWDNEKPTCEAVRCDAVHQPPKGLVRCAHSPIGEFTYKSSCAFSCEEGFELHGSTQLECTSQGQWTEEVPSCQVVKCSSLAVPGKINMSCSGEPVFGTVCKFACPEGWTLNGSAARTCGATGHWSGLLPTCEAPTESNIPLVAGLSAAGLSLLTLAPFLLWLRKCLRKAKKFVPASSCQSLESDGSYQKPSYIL
Assay: Inhibition of E-selectin mediated adhesion of 3H-thymidine labelled U937 cells to E-selectin expressing CHO cells
Type: cell-based
Details: U937 binding to E-selectin expressing CHO cells, 4° C., 1 hour
Experimental: The test compounds were assayed to determine their effectiveness at inhibiting E-selectin mediated adhesion between a leucocytic cell line, U937, which expresses ligands for E-selectin, and a Chinese Hamster Ovary cell line which stably expresses E-selectin. The assay has been validated with a commercial known ligand of the E-selectin, 3'-sialyl-3-fucosyl lactose (3S'3FL).
A 96 well plate was seeded with E-selectin expressing CHO cells which were confluent on the day of the assay.
U937 cells were incubated overnight with ^3 H thymidine. (Incubation conditions: 2×10^5 U937 cells per ml, 0.0751 μCi ^3 H thymidine).
Hanks Balanced salts solution, 25 mM HEPES, 0.1% azide.
The compounds were dissolved in 1 ml of assay medium. For E8, 10% methanol was added to achieve a homogenous solution.
The pH of the compounds was adjusted to approximately pH 7.2.
The ^3 H thymidine count value at each concentration of inhibitor is the average of six replicates. Maximum binding was measured by binding U937 cells to E-Selectin CHO cells in the absence of any test compounds.
Background was measured by U937 binding to untransfected CHO cells.
On the day of assay the 96 well plate was washed 3 times in ice cold assay medium. 50 μl of test sample was added to each well and incubated on ice for 1 hour. Meanwhile the U937 cells were washed 3 times in ice cold assay medium. resuspended at a concentration of 3×10^6 cells per ml and then 50 μl was added to each plate. The plates were kept on ice and allowed to incubate at 4° C. for 1 hour. Then they were washed ×3 and the remaining cells solubilised and the radioactivity in the samples counted.
The U937 cells that were used in the 1D2 control were pre-incubated in the presence of 0.1 mg/ml gammaglobulin before addition to the plate.

**Q.** With `CC(=O)N[C@H]1[C@H]([C@H](O)[C@H](O)CO)O[C@@](O[C@H]2[C@@H](O)[C@@H](CO)O[C@@H](O[C@H]3[C@H](O[C@@H]4O[C@@H](C)[C@@H](O)[C@@H](O)[C@@H]4O)[C@@H](O)C(O)O[C@@H]3CO)[C@@H]2O)(C(=O)O)C[C@@H]1O` (stereo partly shown) [3'S3FL, 3'-sialyl-3-fucosyl lactose, reference compound] as the compound, how does the inhibition at 500 µM (0.5 mM) read?
**A.** 54%

**Q.** With `COC(=O)C1(OCCCC(=O)CC2(O)C(C)OC(OC)C(O)C2O)CC(O)C(NC(C)=O)C(C(O)C(O)CO)O1` [E7, α-O-Methyl-4R-[{5"N-acetyl-α2"-O-neuraminidylmethyl ester}-5'-oxy-2'-oxo-pent-1'-yl]-L-fucopyranoside] as the compound, how does the inhibition at 17100 µM (17.1 mM) read?
**A.** 65%

**Q.** `COC1OC(C)C(O)(CC(=O)CCCOC2(C(=O)O)CC(O)C(NC(C)=O)C(C(O)C(O)CO)O2)C(O)C1O` [E8, α-O-Methyl-4R-[{N-acetyl-α2"-neuraminidylsodium carboxylate}5'-oxy-2'-oxo-pent-1'-yl]-L-fucopyranoside] was tested. Which inhibition at 26800 µM (26.8 mM, 10% methanol added) did it give?
**A.** 18.5%

**Q.** Which inhibition at 30700 µM (30.7 mM) does the source give for `COC(=O)C1(OCCCC=CC(O)CC2(O)C(C)OC(OC)C(O)C2O)CC(O)C(NC(C)=O)C(C(O)C(O)CO)O1` [E21, α-O-Methyl-4R-[{N-acetyl-α2"-neuraminidylmethyl}7'-oxy-2'R and S-hydroxy-hept-3'-en-1'-yl]-L-fucopyranoside] here?
**A.** 21%

Reference: US5703059A, “Disaccharide ligands for selectins” (British Biotech Pharmaceuticals Ltd., priority 1993, dated 1997)
